Measured values reported in patent US8481528B2 (Hoffmann-La Roche Inc., priority 2010, dated 2013).
Where a name gives a salt, the structure may show the parent alone. Read-outs that look alike come from different tables or passages of the source.

Target: T1, human V1a receptor (Homo sapiens, UniProt P37288)
T1 construct: expressed in transfected cells; host or cells: HEK293 cells, transiently transfected; cell membranes
Experiment: human V1a receptor binding (3H-Vasopressin SPA, HEK293 membranes)
Procedure: The human V1a receptor was cloned by RT-PCR from total human liver RNA. The coding sequence was subcloned in an expression vector after sequencing to confirm the identity of the amplified sequence. […] Cell membranes were prepared from HEK293 cells transiently transfected with the expression vector and grown in 20 liter fermenters with the following protocol.
50 g of cells are resuspended in 30 ml freshly prepared ice cold Lysis buffer (50 mM HEPES, 1 mM EDTA, 10 mM magnesium dichloride adjusted to pH=7.4+complete cocktail of protease inhibitor (Roche Diagnostics)). Homogenized with Polytron for 1 min and sonicated on ice for 2×2 minutes at 80% intensity (Vibracell sonicator). The preparation is centrifuged 20 min at 500 g at 4° C., the pellet is discarded and the supernatant centrifuged 1 hour at 43′000 g at 4° C. (19'000 rpm). The pellet is resuspended in 12.5 ml Lysis buffer+12.5 ml sucrose 20% and homogenized using a Polytron for 1-2 min. The protein concentration is determined by the Bradford method and aliquots are stored at −80° C. until use. For binding studies 60 mg Yttrium silicate SPA beads (Amersham®) are mixed with an aliquot of membrane in binding buffer (50 mM Tris, 120 mM sodium chloride, 5 mM potassium chloride, 2 mM calcium dichloride, 10 mM magnesium dichloride) for 15 minutes with mixing. 50 μl of bead/membrane mixture is then added to each well of a 96 well plate, followed by 50 μl of 4 nM 3H-Vasopressin (American Radiolabeled Chemicals). For total binding measurement 100 μl of binding buffer are added to the respective wells, for non-specific binding 100 μl of 8.4 mM cold vasopressin and for compound testing 100 μl of a serial dilution of each compound in 2% dimethyl sulfoxide. The plate is incubated 1 h at room temperature, centrifuged 1 min at 1000 g and counted on a Packard Top-Count. Non-specific binding counts are subtracted from each well and data is normalized to the maximum specific binding set at 100%. To calculate an IC50 the curve is fitted using a non-linear regression model (XLfit) and the Ki is calculated using the Cheng-Prussoff equation.

[1] = 3H-Vasopressin displacement, membranes of HEK293 cells transiently transfected with human V1a receptor, Ki by Cheng-Prusoff, read-out: pKi (hV1a) (converted)

T1 sequence (P37288 whole entry): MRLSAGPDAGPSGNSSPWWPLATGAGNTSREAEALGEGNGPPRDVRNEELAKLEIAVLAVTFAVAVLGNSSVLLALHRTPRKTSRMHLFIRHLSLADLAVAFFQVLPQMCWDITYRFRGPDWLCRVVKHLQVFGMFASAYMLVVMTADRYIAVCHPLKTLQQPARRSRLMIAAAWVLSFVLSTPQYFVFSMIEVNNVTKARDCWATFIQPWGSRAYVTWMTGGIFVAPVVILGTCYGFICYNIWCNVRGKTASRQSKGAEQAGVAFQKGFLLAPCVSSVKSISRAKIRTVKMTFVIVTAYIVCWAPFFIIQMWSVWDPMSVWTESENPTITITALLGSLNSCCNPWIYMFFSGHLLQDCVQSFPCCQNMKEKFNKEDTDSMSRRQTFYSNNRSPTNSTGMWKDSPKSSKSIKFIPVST

Compound	Ki [1] [nM]	Ki [nM]
CC(C)(C)OC(=O)N1Cc2cc(Cl)ccc2-n2c(nnc2[C@H]2CC[C@@H](c3noc4ccccc43)CC2)C1 [Example 1, cis-1-(4-Benzo[d]isoxazol-3-yl-cyclohexyl)-8-chloro-4H,6H-2,3,5,10b-tetraaza-benzo[e]azulene-5-carboxylic acid tert-butyl ester]	8.91	
CC(C)(C)OC(=O)N1Cc2cc(Cl)ccc2-n2c(nnc2[C@H]2CC[C@H](c3noc4ccccc43)CC2)C1 [Example 2, trans-1-(4-Benzo[d]isoxazol-3-yl-cyclohexyl)-8-chloro-4H,6H-2,3,5,10b-tetraaza-benzo[e]azulene-5-carboxylic acid tert-butyl ester]	4.79	
Clc1ccc2c(c1)CNCc1nnc([C@H]3CC[C@@H](c4noc5ccccc54)CC3)n1-2 [Example 3, cis-1-(4-Benzo[d]isoxazol-3-yl-cyclohexyl)-8-chloro-5,6-dihydro-4H-2,3,5,10b-tetraaza-benzo[e]azulene hydrochloride]	11.2	
CN1Cc2cc(Cl)ccc2-n2c(nnc2[C@H]2CC[C@@H](c3noc4ccccc43)CC2)C1 [Example 4, cis-1-(4-Benzo[d]isoxazol-3-yl-cyclohexyl)-8-chloro-5-methyl-5,6-dihydro-4H-2,3,5,10b-tetraaza-benzo[e]azulene]		7.59
Clc1ccc2c(c1)CNCc1nnc([C@H]3CC[C@H](c4noc5ccccc54)CC3)n1-2 [Example 5, trans-1-(4-Benzo[d]isoxazol-3-yl-cyclohexyl)-8-chloro-5,6-dihydro-4H-2,3,5,10b-tetraaza-benzo[e]azulene hydrochloride]	0.891	
CN1Cc2cc(Cl)ccc2-n2c(nnc2[C@H]2CC[C@H](c3noc4ccccc43)CC2)C1 [Example 6, trans-1-(4-Benzo[d]isoxazol-3-yl-cyclohexyl)-8-chloro-5-methyl-5,6-dihydro-4H-2,3,5,10b-tetraaza-benzo[e]azulene]		0.794
CC(C)(C)OC(=O)N1Cc2cc(Cl)ccc2-n2c(nnc2[C@H]2CC[C@H](c3noc4cc(F)ccc43)CC2)C1 [Example 7, trans-8-Chloro-[4-(6-fluoro-benzo[d]isoxazol-3-yl)-cyclohexyl]-4H,6H-2,3,5,10b-tetraaza-benzo[e]azulene-5-carboxylic acid tert-butyl ester]	4.79	
Fc1ccc2c(c1)onc2[C@H]1CC[C@H](c2nnc3n2-c2ccc(Cl)cc2CNC3)CC1 [Example 8, trans-8-Chloro-1-[4-(6-fluoro-benzo[d]isoxazol-3-yl)-cyclohexyl]-5,6-dihydro-4H-2,3,5,10b-tetraaza-benzo[e]azulene hydrochloride]	1.51	
CN1Cc2cc(Cl)ccc2-n2c(nnc2[C@H]2CC[C@H](c3noc4cc(F)ccc43)CC2)C1 [Example 9, trans-8-Chloro-1-[4-(6-fluoro-benzo[d]isoxazol-3-yl)-cyclohexyl]-5-methyl-5,6-dihydro-4H-2,3,5,10b-tetraaza-benzo[e]azulene]	1.2	
CC(C)(C)OC(=O)N1Cc2cc(Cl)ccc2-n2c(nnc2[C@H]2CC[C@H](c3noc4ccc(F)cc43)CC2)C1 [Example 10, trans-8-Chloro-1-[4-(5-fluoro-benzo[d]isoxazol-3-yl)-cyclohexyl]-4H,6H-2,3,5,10b-tetraaza-benzo[e]azulene-5-carboxylic acid tert-butyl ester]	3.24	
Fc1ccc2onc([C@H]3CC[C@H](c4nnc5n4-c4ccc(Cl)cc4CNC5)CC3)c2c1 [Example 11, trans-8-Chloro-1-[4-(5-fluoro-benzo[d]isoxazol-3-yl)-cyclohexyl]-5,6-dihydro-4H-2,3,5,10b-tetraaza-benzo[e]azulene hydrochloride]	2.09	
CN1Cc2cc(Cl)ccc2-n2c(nnc2[C@H]2CC[C@H](c3noc4ccc(F)cc43)CC2)C1 [Example 12, trans-8-Chloro-1-[4-(5-fluoro-benzo[d]isoxazol-3-yl)-cyclohexyl]-5-methyl-5,6-dihydro-4H-2,3,5,10b-tetraaza-benzo[e]azulene]	0.794	
CC(C)(C)OC(=O)N1Cc2cc(Cl)ccc2-n2c(nnc2[C@H]2CC[C@H](c3noc4cccnc43)CC2)C1 [Example 13, trans-8-Chloro-1-(4-isoxazolo[4,5-b]pyridin-3-yl-cyclohexyl)-4H,6H-2,3,5,10b-tetraaza-benzo[e]azulene-5-carboxylic acid tert-butyl ester]	2.69	
Clc1ccc2c(c1)CNCc1nnc([C@H]3CC[C@H](c4noc5cccnc54)CC3)n1-2 [Example 14, trans-8-Chloro-1-(4-isoxazolo[4,5-b]pyridin-3-yl-cyclohexyl)-5,6-dihydro-4H-2,3,5,10b-tetraaza-benzo[e]azulene hydrochloride]	2.19	
CN1Cc2cc(Cl)ccc2-n2c(nnc2[C@H]2CC[C@H](c3noc4cccnc43)CC2)C1 [Example 15, trans-8-Chloro-1-(4-isoxazolo[4,5-b]pyridin-3-yl-cyclohexyl)-5-methyl-5,6-dihydro-4H-2,3,5,10b-tetraaza-benzo[e]azulene]	0.708	
CC(C)(C)OC(=O)N1Cc2cc(Cl)ccc2-n2c(nnc2[C@H]2CC[C@H](c3noc4ncccc43)CC2)C1 [Example 16, trans-8-Chloro-1-(4-isoxazolo[5,4-b]pyridin-3-yl-cyclohexyl)-4H,6H-2,3,5,10b-tetraaza-benzo[e]azulene-5-carboxylic acid tert-butyl ester]		3.63
Clc1ccc2c(c1)CNCc1nnc([C@H]3CC[C@H](c4noc5ncccc54)CC3)n1-2 [Example 17, trans-8-Chloro-1-(4-isoxazolo[5,4-b]pyridin-3-yl-cyclohexyl)-5,6-dihydro-4H-2,3,5,10b-tetraaza-benzo[e]azulene hydrochloride]	5.25	
CN1Cc2cc(Cl)ccc2-n2c(nnc2[C@H]2CC[C@H](c3noc4ncccc43)CC2)C1 [Example 18, trans-8-Chloro-1-(4-isoxazolo[5,4-b]pyridin-3-yl-cyclohexyl)-5-methyl-5,6-dihydro-4H-2,3,5,10b-tetraaza-benzo[e]azulene]	0.891	
CC(C)(C)OC(=O)N1Cc2cc(Cl)ccc2-n2c(nnc2[C@H]2CC[C@H](c3nsc4ccccc43)CC2)C1 [Example 19, trans-1-(4-Benzo[d]isothiazol-3-yl-cyclohexyl)-8-chloro-4H,6H-2,3,5,10b-tetraaza-benzo[e]azulene-5-carboxylic acid tert-butyl ester]	7.59	
Clc1ccc2c(c1)CNCc1nnc([C@H]3CC[C@H](c4nsc5ccccc54)CC3)n1-2 [Example 20, trans-1-(4-Benzo[d]isothiazol-3-yl-cyclohexyl)-8-chloro-5,6-dihydro-4H-2,3,5,10b-tetraaza-benzo[e]azulene hydrochloride]		1.51
CN1Cc2cc(Cl)ccc2-n2c(nnc2[C@H]2CC[C@H](c3nsc4ccccc43)CC2)C1 [Example 21, trans-1-(4-Benzo[d]isothiazol-3-yl-cyclohexyl)-8-chloro-5-methyl-5,6-dihydro-4H-2,3,5,10b-tetraaza-benzo[e]azulene]	1.58	
Clc1ccc2c(c1)CN(C1CCC1)Cc1nnc([C@H]3CC[C@H](c4nsc5ccccc54)CC3)n1-2 [Example 22, trans-1-(4-Benzo[d]isothiazol-3-yl-cyclohexyl)-8-chloro-5-cyclobutyl-5,6-dihydro-4H-2,3,5,10b-tetraaza-benzo[e]azulene]		0.302
CNCCN1Cc2cc(Cl)ccc2-n2c(nnc2[C@H]2CC[C@H](c3nsc4ccccc43)CC2)C1 [Example 23, trans-{2-[1-(4-Benzo[d]isothiazol-3-yl-cyclohexyl)-8-chloro-4H,6H-2,3,5,10b-tetraaza-benzo[e]azulen-5-yl]-ethyl}-methyl-amine]	0.603	
CC(=O)N1Cc2cc(Cl)ccc2-n2c(nnc2[C@H]2CC[C@H](c3nsc4ccccc43)CC2)C1 [Example 24, trans-1-[1-(4-Benzo[d]isothiazol-3-yl-cyclohexyl)-8-chloro-4H,6H-2,3,5,10b-tetraaza-benzo[e]azulen-5-yl]-ethanone]		0.398
CN(C)CC(=O)N1Cc2cc(Cl)ccc2-n2c(nnc2[C@H]2CC[C@H](c3nsc4ccccc43)CC2)C1 [Example 25, trans-1-[1-(4-Benzo[d]isothiazol-3-yl-cyclohexyl)-8-chloro-4H,6H-2,3,5,10b-tetraaza-benzo[e]azulen-5-yl]-2-dimethylamino-ethanone]	0.302	
CS(=O)(=O)N1Cc2cc(Cl)ccc2-n2c(nnc2[C@H]2CC[C@H](c3nsc4ccccc43)CC2)C1 [Example 26, trans-1-(4-Benzo[d]isothiazol-3-yl-cyclohexyl)-8-chloro-5-methanesulfonyl-5,6-dihydro-4H-2,3,5,10b-tetraaza-benzo[e]azulene]	0.302	
